pKi: −log10 of the molar value.

One assay concerns the target T1, Dimer of Gag-Pol polyprotein [489-587] (Human immunodeficiency virus 1, UniProt P04585).
T1 construct: 489-587
In words: Protease Inhibition Assay. To be noted: pH 5; 22 °C. The source says:
(§1) HIV-1 protease was purified and refolded from E. coli inclusion bodies. […] In the presence of HIV-l protease, the substrate is rapidly cleaved into two parts. The biotinylated amino terminal fragment binds to the avidin beads while the FITC-containing carboxy1 terminal fragment is removed through the membrane. […] The bound fluorescence is obtained by processing on an IDEXX Screen Machine. Determination of Ki values with this assay requires analysis under conditions in which substrate concentration resides substantially below Km and the inhibitor concentrations greatly exceeds the Ki value and the enzyme concentration.
`N#Cc1cccc(S(=O)(=O)Nc2cccc(C(c3c(O)c4c(oc3=O)CCCCCC4)C3CC3)c2)c1` (centres undefined) [3-cyano-N-{3-[cyclopropyl({4-hydroxy-2-oxo-2H,5H,6H,7H,8H,9H,10H-cycloocta[b]pyran-3-yl})methyl]phenyl}benzene-1-sulfonamide]: the pKi (usually the negative decadic logarithm of the Ki, by convention in mol/L) is 9.22.

Another assay deals with T2, Dimer of Gag-Pol polyprotein [489-587] (Human immunodeficiency virus 1, UniProt P12497).
T2 construct: 489-587
The assay is described as follows: Protease Inhibition Assay.
Settings: not given
From the text: as §1
As for `O=c1oc2c(c(O)c1C(c1cccc(NS(=O)(=O)c3ccc(I)cc3)c1)C1CC1)CCCCCC2` (centres undefined) [N-{3-[cyclopropyl({4-hydroxy-2-oxo-2H,5H,6H,7H,8H,9H,10H-cycloocta[b]pyran-3-yl})methyl]phenyl}-4-iodobenzene-1-sulfonamide], the negative logarithm of the Ki (pKi) was 8.51.

For `O=c1oc2c(c(O)c1C(c1cccc(NS(=O)(=O)c3ccc([N+](=O)[O-])cc3)c1)C1CC1)CCCCCC2` (centres undefined) [N-{3-[cyclopropyl({4-hydroxy-2-oxo-2H,5H,6H,7H,8H,9H,10H-cycloocta[b]pyran-3-yl})methyl]phenyl}-4-nitrobenzene-1-sulfonamide], the pKi is 8.57.

The molecule `O=c1oc2c(c(O)c1C(c1cccc(NS(=O)(=O)c3cccc4ccccc34)c1)C1CC1)CCCCCC2` (centres undefined) [N-{3-[cyclopropyl({4-hydroxy-2-oxo-2H,5H,6H,7H,8H,9H,10H-cycloocta[b]pyran-3-yl})methyl]phenyl}naphthalene-1-sulfonamide] gave a pKi of 8.26.

As for `O=c1oc2c(c(O)c1C(c1cccc(NS(=O)(=O)c3ccc4ccccc4c3)c1)C1CC1)CCCCCC2` (centres undefined) [N-{3-[cyclopropyl({4-hydroxy-2-oxo-2H,5H,6H,7H,8H,9H,10H-cycloocta[b]pyran-3-yl})methyl]phenyl}naphthalene-2-sulfonamide], the pKi is 8.39. This pKi and that of the molecule before are within 0.2 log units of each other.

Molecule `O=c1oc2c(c(O)c1C(c1cccc(NS(=O)(=O)c3cnccn3)c1)C1CC1)CCCCCC2` (centres undefined) [N-{3-[cyclopropyl({4-hydroxy-2-oxo-2H,5H,6H,7H,8H,9H,10H-cycloocta[b]pyran-3-yl})methyl]phenyl}pyrazine-2-sulfonamide] had a pKi of 9.70. This pKi lies 1.31 log units higher than the previous one.

In the case of `O=c1oc2c(c(O)c1C(c1cccc(NS(=O)(=O)c3ncccn3)c1)C1CC1)CCCCCC2` (centres undefined) [N-{3-[cyclopropyl({4-hydroxy-2-oxo-2H,5H,6H,7H,8H,9H,10H-cycloocta[b]pyran-3-yl})methyl]phenyl}pyrimidine-2-sulfonamide], the pKi is 9.10.

Regarding `O=c1oc2c(c(O)c1C(c1cccc(NS(=O)(=O)c3ccc4ccccc4n3)c1)C1CC1)CCCCCC2` (centres undefined) [N-{3-[cyclopropyl({4-hydroxy-2-oxo-2H,5H,6H,7H,8H,9H,10H-cycloocta[b]pyran-3-yl})methyl]phenyl}quinoline-2-sulfonamide], the negative-log Ki (pKi) was 9.40. Compared with the last molecule, the pKi is 0.30 log units higher.

Take `O=c1oc2c(c(O)c1C(c1cccc(NS(=O)(=O)c3cccs3)c1)C1CC1)CCCCCC2` (centres undefined) [N-{3-[cyclopropyl({4-hydroxy-2-oxo-2H,5H,6H,7H,8H,9H,10H-cycloocta[b]pyran-3-yl})methyl]phenyl}thiophene-2-sulfonamide]: the pKi was 8.20.

(Values after BindingDB's records for doi:10.1021/jm960441m (Upjohn, 1997).)
